The values that follow come from US8324248B2, “Piperidine derivatives as NK3 receptor antagonists” (Hoffmann-La Roche Inc., priority 2009, dated 2012).

A word on the Ki: it is a dissociation constant, usually derived from enzyme kinetics or from competition with a known ligand.

This test addresses T1, recombinant human NK3 receptor (Homo sapiens, UniProt P29371).
T1 construct: expressed in transfected cells; host or cells: HEK293 cells (transient expression), membranes
T1 sequence (P29371 1-465): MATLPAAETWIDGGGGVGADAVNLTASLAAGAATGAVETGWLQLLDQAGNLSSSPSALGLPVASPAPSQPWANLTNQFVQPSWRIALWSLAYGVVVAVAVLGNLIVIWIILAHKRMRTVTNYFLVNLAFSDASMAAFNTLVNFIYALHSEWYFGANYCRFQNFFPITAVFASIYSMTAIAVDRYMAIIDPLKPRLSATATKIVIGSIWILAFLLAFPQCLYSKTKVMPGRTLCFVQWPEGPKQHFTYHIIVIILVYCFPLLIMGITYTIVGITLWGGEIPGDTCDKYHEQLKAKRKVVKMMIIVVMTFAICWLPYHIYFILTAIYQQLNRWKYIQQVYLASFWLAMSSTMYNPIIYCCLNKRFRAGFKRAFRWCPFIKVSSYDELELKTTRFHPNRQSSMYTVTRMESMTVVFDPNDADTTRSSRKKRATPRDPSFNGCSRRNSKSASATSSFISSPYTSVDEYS
As to the kind of experiment: [3H]SR142801 competition binding assay, hNK3 receptor binding. The settings on record: [3H]SR142801 displacement; membranes from HEK293 cells transiently expressing recombinant human NK3 receptor; Ki by Cheng-Prussoff from IC50. The method, then:
The compounds were investigated in accordance with the tests given hereinafter. [^3H]SR142801 competition binding assay hNK3 receptor binding experiment were performed using [^3H]SR142801 (Catalog No. TRK1035, specific activity: 74.0 Ci/mmol, Amersham, GE Healthcare UK limited, Buckinghamshire, UK) and membrane isolated from HEK293 cells transiently expressing recombinant human NK3 receptor. After thawing, the membrane homogenates were centrifuged at 48,000×g for 10 min at 4° C., the pellets were resuspended in the 50 mM Tris-HCl, 4 mM MnCl2, 1 μM phosphoramidon, 0.1% BSA binding buffer at pH 7.4 to a final assay concentration of 5 μg protein/well. For inhibition experiments, membranes were incubated with [^3H]SR142801 at a concentration equal to KD value of radioligand and 10 concentrations of the inhibitory compound (0.0003-10 μM) (in a total reaction volume of 500 μl) for 75 min at room temperature (RT). At the end of the incubation, membranes were filtered onto unitfilter (96-well white microplate with bonded GF/C filter preincubated 1 h in 0.3% PEI+0.3% BSA, Packard BioScience, Meriden, Conn.) with a Filtermate 196 harvester (Packard BioScience) and washed 4 times with ice-cold 50 mM Tris-HCl, pH 7.4 buffer. Nonspecific binding was measured in the presence of 10 μM SB222200 for both radioligands. The radioactivity on the filter was counted (5 min) on a Packard Top-count microplate scintillation counter with quenching correction after addition of 45 μl of microscint 40 (Can berra Packard S. A., Zürich, Switzerland) and shaking for 1 h. Inhibition curves were fitted according to the Hill equation: y=100/(1+(x/IC50)^nH), where nH=slope factor using Excel-fit 4 software (Microsoft). IC50 values were derived from the inhibition curve and the affinity constant (Ki) values were calculated using the Cheng-Prussoff equation Ki=IC50/(1+[L]/KD) where [L] is the concentration of radioligand and KD is its dissociation constant at the receptor, derived from the saturation isotherm. All experiments were performed in duplicate and the mean±standard error (SEM) of the individual Ki values was calculated.
Turning to `C[C@H](Oc1ccc(F)cn1)[C@H]1CCN(C(=O)C2CCN(c3ccc(C#N)cn3)CC2)C[C@@H]1c1ccc(Cl)cc1` [Example 52, 4-{(3S,4S)-3-(4-Chloro-phenyl)-4-[(S)-1-(5-fluoro-pyridin-2-yloxy)-ethyl]-piperidine-1-carbonyl}-3,4,5,6-tetrahydro-2H-[1,2′]bipyridinyl-5′-carbonitrile], the Ki amounted to 0.6 nM. Turning to `C[C@H](Oc1ccc(C(F)(F)F)cn1)[C@H]1CCN(C(=O)C2CCN(c3ccc(C#N)cn3)CC2)C[C@@H]1c1ccc(Cl)cc1` [Example 20, 4-{(3S,4S)-3-(4-Chloro-phenyl)-4-[(S)-1-(5-trifluoromethyl-pyridin-2-yloxy)-ethyl]-piperidine-1-carbonyl}-3,4,5,6-tetrahydro-2H-[1,2′]bipyridinyl-5′-carbonitrile], the Ki worked out at 0.2 nM. In the case of `Cc1cc(C(=O)N2CC[C@H]([C@H](C)Oc3ccc(Cl)cn3)[C@@H](c3ccc(Cl)cc3)C2)cnn1` [Example 10, {(3S,4S)-3-(4-Chloro-phenyl)-4-[(S)-1-(5-chloro-pyridin-2-yloxy)-ethyl]-piperidin-1-yl}-(6-methyl-pyridazin-4-yl)-methanone] it was 3.6 nM; in that of `Cc1nc(-c2ccc(C(=O)N3CC[C@H]([C@H](C)Oc4ccc(C#N)cn4)[C@@H](c4ccc(Cl)cc4)C3)cc2)no1` [Example 26, 6-((S)-1-{(3S,4S)-3-(4-Chloro-phenyl)-1-[4-(5-methyl-[1,2,4]oxadiazol-3-yl)-benzoyl]-piperidin-4-yl}-ethoxy)-nicotinonitrile], 5.1 nM.

As to `Cc1cc(C(=O)N2CC[C@H]([C@H](C)Oc3ccc(C#N)cn3)[C@@H](c3ccc(Cl)cc3)C2)cnn1` [Example 24, 6-{(S)-1-[(3S,4S)-3-(4-Chloro-phenyl)-1-(6-methyl-pyridazine-4-carbonyl)-piperidin-4-yl]-ethoxy}-nicotinonitrile], the Ki worked out at 8.7 nM. In the case of `CC(Nc1ccc(C#N)cn1)[C@H]1CCN(C(=O)C2CCN(c3ccc(C#N)cn3)CC2)C[C@@H]1c1ccc(Cl)cc1` (mixture of isomers) [Example 68, 4-{(3S,4S)-3-(4-Chloro-phenyl)-4-[(SR)-1-(5-cyano-pyridin-2-ylamino)-ethyl]-piperidine-1-carbonyl}-3,4,5,6-tetrahydro-2H-[1,2′]bipyridinyl-5′-carbonitrile] it was 1.4 nM; in that of `C[C@H](Oc1ccc(C(F)(F)F)cn1)[C@H]1CCN(C(=O)C2CCN(C(=O)C3(C)CC3)CC2)C[C@@H]1c1ccc(Cl)cc1` [Example 16, (4-{(3S,4S)-3-(4-Chloro-phenyl)-4-[(S)-1-(5-trifluoromethyl-pyridin-2-yloxy)-ethyl]-piperidine-1-carbonyl}-piperidin-1-yl)-(1-methyl-cyclopropyl)-methanone], 1.6 nM; in that of `Cc1noc(-c2ccc(C(=O)N3CC[C@H](COc4ccc(Cl)cn4)[C@@H](c4ccc(F)c(F)c4)C3)cc2)n1` (racemic) [Example 31, [(3SR,4SR)-4-(5-Chloro-pyridin-2-yloxymethyl)-3-(3,4-difluoro-phenyl)-piperidin-1-yl]-[4-(3-methyl-[1,2,4]oxadiazol-5-yl)-phenyl]-methanone], 8.3 nM. The value for `C[C@H](Oc1ccc(C#N)cn1)[C@H]1CCN(C(=O)C2CCN(C(=O)C3(C)CC3)CC2)C[C@@H]1c1ccc(Cl)cc1` [Example 23, 6-((S)-1-{(3S,4S)-3-(4-Chloro-phenyl)-1-[1-(1-methyl-cyclopropanecarbonyl)-piperidine-4-carbonyl]-piperidin-4-yl}-ethoxy)-nicotinonitrile] was 1.1 nM; that for `C[C@H](Oc1ccc(Cl)c(Cl)c1)[C@H]1CCN(C(=O)C2CCN(c3ccc(C#N)cn3)CC2)C[C@@H]1c1ccc(Cl)cc1` [Example 49, 4-{(3S,4S)-3-(4-Chloro-phenyl)-4-[(S)-1-(3,4-dichloro-phenoxy)-ethyl]-piperidine-1-carbonyl}-3,4,5,6-tetrahydro-2H-[1,2′]bipyridinyl-5′-carbonitrile] was 5.5 nM; that for `Cc1noc(-c2ccc(C(=O)N3CC[C@H]([C@H](C)Oc4ccc(Cl)cn4)[C@@H](c4ccc(Cl)cc4)C3)cc2)n1` [Example 11, {(3S,4S)-3-(4-Chloro-phenyl)-4-[(S)-1-(5-chloro-pyridin-2-yloxy)-ethyl]-piperidin-1-yl}-[4-(3-methyl-[1,2,4]oxadiazol-5-yl)-phenyl]-methanone] was 1.8 nM.

`C[C@H](Oc1ccc(Cl)cn1)[C@H]1CCN(C(=O)C2CCN(C(=O)C3(C)CC3)CC2)C[C@@H]1c1ccc(F)c(F)c1` [Example 63, {4-[(3S,4S)-4-[(S)-1-(5-Chloro-pyridin-2-yloxy)-ethyl]-3-(3,4-difluoro-phenyl)-piperidine-1-carbonyl]piperidin-1-yl}-(1-methyl-cyclopropyl)-methanone]: the inhibition constant (Ki) amounted to 3.5 nM. The value for `C[C@H](Oc1ccc(C#N)cc1)[C@H]1CCN(C(=O)C2CCN(c3ccc(C#N)cn3)CC2)C[C@@H]1c1ccc(Cl)cc1` [Example 51, 4-{(3S,4S)-3-(4-Chloro-phenyl)-4-[(S)-1-(4-cyano-phenoxy)-ethyl]-piperidine-1-carbonyl}-3,4,5,6-tetrahydro-2H-[1,2′]bipyridinyl-5′-carbonitrile] was 1.9 nM; that for `N#Cc1ccc(N2CCC(C(=O)N3CC[C@H](COc4ccc(Cl)cn4)[C@@H](c4ccc(F)c(F)c4)C3)CC2)nc1` (relative stereo) [Example 33] was 1.3 nM. In the case of `C[C@H](Oc1ccc(Cl)cn1)[C@H]1CCN(C(=O)N2CCN(S(C)(=O)=O)CC2)C[C@@H]1c1ccc(Cl)cc1` [Example 14, {(3S,4S)-3-(4-Chloro-phenyl)-4-[(S)-1-(5-chloro-pyridin-2-yloxy)-ethyl]-piperidin-1-yl}-(4-methanesulfonyl-piperazin-1-yl)-methanone] it was 2.6 nM.

Regarding `C[C@H](Oc1cccc(F)c1)[C@H]1CCN(C(=O)C2CCN(c3ccc(C#N)cn3)CC2)C[C@@H]1c1ccc(Cl)cc1` [Example 56, 4-{(3S,4S)-3-(4-Chloro-phenyl)-4-[(S)-1-(3-fluoro-phenoxy)-ethyl]-piperidine-1-carbonyl}-3,4,5,6-tetrahydro-2H-[1,2′]bipyridinyl-5′-carbonitrile], the Ki is 3.8 nM. In the case of `C[C@H](Oc1ccc(C(F)(F)F)cc1)[C@H]1CCN(C(=O)C2CCN(c3ccc(C#N)cn3)CC2)C[C@@H]1c1ccc(Cl)cc1` [Example 50, 4-{(3S,4S)-3-(4-Chloro-phenyl)-4-[(S)-1-(4-trifluoromethyl-phenoxy)-ethyl]-piperidine-1-carbonyl}-3,4,5,6-tetrahydro-2H-[1,2′]bipyridinyl-5′-carbonitrile] it was 1.3 nM. The value for `Cc1ccc(O[C@@H](C)[C@H]2CCN(C(=O)C3CCN(c4ccc(C#N)cn4)CC3)C[C@@H]2c2ccc(Cl)cc2)cc1` [Example 57, 4-[(3S,4S)-3-(4-Chloro-phenyl)-4-((S)-1-p-tolyloxy-ethyl)-piperidine-1-carbonyl]-3,4,5,6-tetrahydro-2H-[1,2′]bipyridinyl-5′-carbonitrile] was 1.4 nM. The value for `Cc1nc(-c2ccc(C(=O)N3CC[C@H]([C@H](C)Oc4ccc(C(F)(F)F)cn4)[C@@H](c4ccc(Cl)cc4)C3)cc2)no1` [Example 19, {(3S,4S)-3-(4-Chloro-phenyl)-4-[(S)-1-(5-trifluoromethyl-pyridin-2-yloxy)-ethyl]-piperidin-1-yl}-[4-(5-methyl-[1,2,4]oxadiazol-3-yl)-phenyl]-methanone] was 1.4 nM; that for `Cc1ccc(O[C@@H](C)[C@H]2CCN(C(=O)C3CCN(c4ccc(C#N)cn4)CC3)C[C@@H]2c2ccc(Cl)cc2)nc1` [Example 58, 4-{(3S,4S)-3-(4-Chloro-phenyl)-4-[(S)-1-(5-methyl-pyridin-2-yloxy)-ethyl]piperidine-1-carbonyl}-3,4,5,6-tetrahydro-2H-[1,2′]bipyridinyl-5′-carbonitrile] was 2 nM.
